IC50 data for 15 molecules are collected here from ChEMBL document CHEMBL1145916, “A method for designing conformationally restricted analogues based on allylic strain: synthesis of a novel class of noncompetitive NMDA receptor antagonists having the acrylamide structure” (J Med Chem, 2003).

One may read the IC50 as the midpoint of a concentration-inhibition curve. Low readings indicate inhibition by little substance, high ones a need for much substance.

Where only a bound is given, the exact number is not on record here.

The target in this assay is Glutamate NMDA receptor. As to the kind of experiment: Binding affinity for N-methyl-D-aspartate glutamate receptor of cerebral cortical synaptic membranes from rats using [3H]MK-801 as radioligand.
In the case of `CCN(CC)C(=O)[C@@]1(c2ccccc2)C[C@H]1C1CCCN1` (stereo not given in full), the IC50 was 1 µM. This lies in the single-digit micromolar range.

As to `CCCN(CCC)C(=O)/C(=C\C1CCCN1)c1cccc(F)c1` (stereo not given), the 50% inhibitory concentration (IC50) is 0.42 µM.

The molecule `CCCCN(CCCC)C(=O)/C(=C\C1CCCN1)c1ccccc1` (stereo not given) yielded an IC50 of 4.2 µM. This IC50 lies about 10-fold higher than the previous one.

On to `CCN(CC)C(=O)/C(=C\C1CCCN1)c1ccccc1` (stereo not given), for which the half-maximal inhibitory concentration (IC50) is 3.6 µM.

As for `C=C(C)CN(CC)C(=O)/C(=C\C1CCCN1)c1ccccc1` (stereo not given), the half-maximal inhibitory concentration (IC50) stood at 0.52 µM.

`CCCN(CCC)C(=O)/C(=C\C(N)CC)c1ccccc1` (stereo not given) yielded an IC50 of 0.53 µM.

`CC[C@H](N)[C@@H]1C[C@@]1(C(=O)N(CC)CC)c1ccccc1`: the IC50 was determined as 0.2 µM.

With `CCCN(CCC)C(=O)/C(=C\C1CCCN1)c1ccccc1` (stereo not given), the IC50 came out at 0.54 µM.

`CCCN(CCC)C(=O)/C(=C\C1CCCN1)c1ccc(C)cc1` (stereo not given): the IC50 is greater than 1000 µM.

For `CCCN(CCC)C(=O)/C(=C\C1CCCN1)c1ccc(OC)cc1` (stereo not given), the IC50 was 160 µM.

Take `CCCN(CCC)C(=O)/C(=C\C1CCCN1)c1ccccc1F` (stereo not given): the IC50 stood at 1.7 µM. This IC50 lies about 94-fold lower than the previous one.

For `CCCN(CC1CC1)C(=O)/C(=C\C1CCCN1)c1ccccc1` (stereo not given), the IC50 stood at 0.74 µM. This IC50 lies about 2.3-fold lower than the previous one.

The molecule `O=C(/C(=C\C1CCCN1)c1ccccc1)N1CCCCCC1` (stereo not given) returned a half-maximal inhibitory concentration (IC50) of 16 µM.

Regarding `O=C(/C(=C\C1CCCN1)c1ccccc1)N1CCNCC1` (stereo not given), the IC50 was greater than 1000 µM.

`CCCN(CCC)C(=O)/C(=C\C1CCCN1)c1ccc(F)cc1` (stereo not given) had an IC50 of 13 µM.
